“Also recorded” adds a separate entry of the source.
Legend:
[1] = Cytotoxicity in mock-infected MT-4 cells, MTT method; type: cell-based; settings: human, mock-infected MT-4 cells, CC50, mock-infected MT-4 cells
MT-4 cells = assay: as above; type: cell-based
[2] = test system: HIV-1 mutant strain L100I; assay: microbe, parasite or virus in culture; type: cell-based; settings: Human immunodeficiency virus 1, MT4, read-out: EC50 L100I
[3] = test system: HIV-1 mutant strain K103N; assay: microbe, parasite or virus in culture; type: cell-based; settings: Human immunodeficiency virus 1, MT4, read-out: EC50 K103N
[4] = test system: HIV-1 mutant strain Y181C; assay: microbe, parasite or virus in culture; type: cell-based; settings: Human immunodeficiency virus 1, MT4, read-out: EC50 Y181C
[5] = test system: HIV-1 mutant strain Y188L; assay: microbe, parasite or virus in culture; type: cell-based; settings: Human immunodeficiency virus 1, MT4, read-out: EC50 Y188L
[6] = test system: HIV-1 mutant strain E138K; assay: microbe, parasite or virus in culture; type: cell-based; settings: Human immunodeficiency virus 1, MT4, read-out: EC50 E138K
[7] = test system: HIV-1 mutant strain F227L + V106A; assay: microbe, parasite or virus in culture; type: cell-based; settings: Human immunodeficiency virus 1, MT4, read-out: EC50 F227L + V106A
[8] = test system: HIV-1 mutant strain RES056 (K103N + Y181C); assay: microbe, parasite or virus in culture; type: cell-based; settings: Human immunodeficiency virus 1, MT4, read-out: EC50 RES056
SPF Kunming mice [9] = assay: Acute toxicity experiment in mice; type: in vivo; settings: 7 days
SPF Kunming mice [10] = assay: Subacute toxicity experiment in mice; type: in vivo
[11] = In vivo pharmacokinetics study in rats; settings: male, Sprague-Dawley, rat, plasma
HIV-1 WT strain (IIIB) = assay: Anti-HIV activity against WT HIV-1; settings: for SI IIIB (CC50/EC50 ratio): WT HIV-1 IIIB

Cc1cc(C)cc(S(=O)(=O)c2c(C(=O)NCCCCNS(=O)(=O)c3cccnc3)[nH]c3ccc(Cl)cc23)c1 [R10L4, 5-Chloro-3-((3,5-dimethylphenyl)sulfonyl)-N-(4-(pyridine-3-sulfonamido)butyl)-1H-indole-2-carboxamide]
CC50 at 5 days [1]: 216 µM
fold decrease in cytotoxicity compared to IAS-0 (MT-4 cells; CC50, MT-4 cells): ~40 fold
CC50 (MT-4 cells; mock-infected MT-4 cells): 216.5 ± 0.52 µM
EC50 [2]: 0.017 ± 0.002 µM
EC50 [3]: 0.068 ± 0.012 µM
EC50 [4]: 0.045 ± 0.01 µM
EC50 [5]: 0.54 ± 0.087 µM
EC50 [6]: 0.017 ± 0.007 µM
EC50 [7]: 0.087 ± 0.035 µM
EC50 [8]: 5.26 µM
mortality or behavior changes, acute toxicity (SPF Kunming mice [9]; 800 mg/kg intragastric): no remarkable in vivo toxic effects; also recorded: did not lead to any mortality or observable behavior changes
body weight, acute toxicity (SPF Kunming mice [9]; 800 mg/kg, compared with blank group): only insignificant body weight loss was seen
mortality or behavior changes, subacute toxicity (SPF Kunming mice [10]; 50 mg/kg p.o., 12 days): no remarkable in vivo toxic effects; also recorded: did not lead to any mortality or observable behavior changes
body weight, subacute toxicity (SPF Kunming mice [10]; 50 mg/kg, 12 days, compared with blank group): only insignificant body weight loss was seen
pathology of hematoxylin and eosin-stained slices from vital organs (SPF Kunming mice [10]; end of subacute toxicity test, heart, liver, spleen, lung, kidney): no marked pathological abnormalities
AUC(0-inf) ([11]; iv, 2 mg/kg): 481 ± 63.3 ng·h/mL
AUC(0-t) ([11]; iv, 2 mg/kg): 472 ± 63.4 ng·h/mL
MRT inf ([11]; iv, 2 mg/kg): 1.45 ± 0.09 h
Tmax ([11]; iv, 2 mg/kg): 0.083 h
clearance ([11]; iv, 2 mg/kg): 70.2 mL/min/kg
half-life ([11]; iv, 2 mg/kg): 1.61 ± 0.04 h
Cmax ([11]; iv, 2 mg/kg, i.v. 2 mg/kg): 657 ± 99.2 ng/mL
bioavailability ([11]; oral, 10 mg/kg): 8.5%
AUC(0-inf) ([11]; po, 10 mg/kg): 203 ± 38.4 ng·h/mL
AUC(0-t) ([11]; po, 10 mg/kg): 199 ± 38.7 ng·h/mL
MRT inf ([11]; po, 10 mg/kg): 2.27 ± 0.05 h
Tmax ([11]; po, 10 mg/kg): 0.83 ± 0.15 h
half-life ([11]; po, 10 mg/kg): 1.78 ± 0.25 h
Cmax ([11]; po, 10 mg/kg, p.o. 10 mg/kg): ≤ 80 ng/mL
selectivity index, times higher than that of IAS-0 (HIV-1 WT strain (IIIB); WT HIV-1): ~14 times
SI IIIB (CC50/EC50 ratio) (HIV-1 WT strain (IIIB)): 30,930

Cc1cc(C)cc(S(=O)(=O)c2c(C(=O)NCCNS(=O)(=O)c3ccc(-c4ccccc4)cc3)[nH]c3ccc(Cl)cc23)c1 [R14L2, N-(2-([1,1′-Biphenyl]-4-sulfonamido)ethyl)-5-chloro-3-((3,5-dimethylphenyl)sulfonyl)-1H-indole-2-carboxamide]
CC50 at 5 days [1]: 64.3 ± 11.2 µM
EC50 [2]: 0.95 ± 0.097 µM
EC50 [3]: 1.19 ± 0.26 µM
EC50 [4]: 1.42 ± 0.37 µM
EC50 [5]: > 31.2 µM
EC50 [6]: 0.74 ± 0.097 µM
EC50 [7]: 2.99 ± 0.68 µM
EC50 [8]: > 82.4 µM
SI IIIB (CC50/EC50 ratio) (HIV-1 WT strain (IIIB)): 317
